Assay results from article PMC3241878 (ACS chemical biology, 2011).

Target: Siderocalin (Scn; a.k.a. Lcn2, Ngal, 24p3) (Homo sapiens, UniProt P80188)
Test: intrinsic fluorescence quenching titration
Type: binding
Settings: pH 7.4, TBS, 5% DMSO, 32 μg/mL ubiquitin, 100 nM protein; ferric complex

Sequence of Siderocalin (Scn; a.k.a. Lcn2, Ngal, 24p3) (P80188 21-198): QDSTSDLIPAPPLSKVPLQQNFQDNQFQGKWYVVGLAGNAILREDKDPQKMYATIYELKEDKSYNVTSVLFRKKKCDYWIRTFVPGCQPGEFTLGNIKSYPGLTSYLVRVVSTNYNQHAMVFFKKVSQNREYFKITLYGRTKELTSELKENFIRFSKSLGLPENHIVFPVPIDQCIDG

Substance | Kd (μM) | Kd [µM]
Fe^IIICMB-7 [n = 7] | 0.128 ± 1.0×10^−3 μM | 
Fe^IIICMB-5 [n = 5] | 1.10 ± 2.6×10^−2 μM | 
Fe^IIICMB-6 [n = 6] | 0.654 ± 2.2×10^−2 μM | 
Fe^IIICMB (n = 3) |  | > 9
Fe^IIICMB (n = 4) | 2.36 ± 9.0×10^−3 μM | 
